# Measurements published in patent US20110160166A1, “Therapeutic composition for the treatment and prevention of athlete's foot and fungal infections of the nail and surrounding tissues” (priority 2009, published 2011).
# Assays:
# [1] = system: nail fungus; details: after 48 weeks of daily topical treatment; cited from earlier work
# [2] = Description: Salicylic acid USP is well known as a strongly antimicrobial pharmaceutical ingredient. It is currently approved by US FDA as an Over-the-Counter active ingredient in anti-dandruff and anti-acne medicaments. Salicylic acid is a skin and eye irritant and a keratolytic, and must be used at low concentrations when applied to human tissue.
# [3] = system: toenail infections; details: cited from earlier work
# [4] = system: fingernail infections; details: terbinafine; 6 weeks of treatment, assessment at 18 weeks after completion of therapy; cited from earlier work
# [5] = target: Cytochrome P450 2D6 isozyme (Homo sapiens, UniProt P10635); details: cited from earlier work
# Chain of Cytochrome P450 2D6 isozyme (P10635 whole entry): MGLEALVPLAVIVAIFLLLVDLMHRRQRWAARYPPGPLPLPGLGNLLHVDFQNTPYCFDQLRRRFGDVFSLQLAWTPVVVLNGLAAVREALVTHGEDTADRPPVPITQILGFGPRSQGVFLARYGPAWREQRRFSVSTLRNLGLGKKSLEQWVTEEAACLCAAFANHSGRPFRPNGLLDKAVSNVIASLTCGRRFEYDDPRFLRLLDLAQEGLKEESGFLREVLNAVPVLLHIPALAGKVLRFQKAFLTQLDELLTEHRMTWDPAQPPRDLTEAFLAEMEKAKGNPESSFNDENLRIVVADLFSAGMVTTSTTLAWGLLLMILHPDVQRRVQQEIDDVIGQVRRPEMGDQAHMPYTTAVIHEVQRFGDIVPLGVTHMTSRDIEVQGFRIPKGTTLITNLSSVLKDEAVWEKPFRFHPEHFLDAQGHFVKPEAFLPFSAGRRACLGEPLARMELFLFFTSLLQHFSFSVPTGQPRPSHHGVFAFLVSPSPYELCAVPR
smiles,measurement,setting,value
"Cc1cc(C2CCCCC2)n(O)c(=O)c1 [Ciclopirox 8%, Ciclopirox]",patients who achieved clear or almost clear nails,[1],< 12%
O=C(O)c1ccccc1O [Salicylic acid],keratolytic and irritant effects,"[2]; formulated into an anhydrous base, applied to human nail and surrounding tissues",dramatically reduced or eliminated
same,irritation experienced by the subject,[2]; high concentrations in anhydrous base,no irritation
CN(C/C=C/C#CC(C)(C)C)Cc1cccc2ccccc12 [terbinafine],cure rates for toenail infections,"[3]; terbinafine 250 mg oral, 12 weeks treatment, 36 weeks follow-up after completion of therapy",38%-59%
same,clinical relapse rate,"[3]; terbinafine, toenail infections",~15%
same,cure rates for fingernail infections,[4],59-79%
same,inhibition of Cytochrome P450 2D6 isozyme,[5],inhibitor
